Reference: patent publication US20090105305A1, “Therapeutic Agents - 550” (AstraZeneca AB, priority 2006, published 2009)

Biological target: T1, human Fatty Acid Synthase (Homo sapiens, UniProt P49327)
T1 construct: made in house
Experiment: Human FAS enzyme assay (decrease in NADPH fluorescence)
Assay type: biochemical
Conditions: for inhibition at 100 µM: % inhibition at a concentration of 100 micromolar; for IC50s in the range of about 0.001 μM to about 30 μM: compounds excluded from the claims by proviso
From the text: The compounds of the present invention are Fatty Acid Synthase inhibitors. […] Human and Rat FAS Enzyme Assay.
Fatty acid synthase is an enzyme complex that harbours seven enzymatic activities catalysing the reductive synthesis of long chain fatty acids from acetyl CoA and malonyl CoA to palmitate. When acetyl CoA and malonyl CoA are forming palmitate NADPH is consumed forming NADP. Since NADPH is fluorescent but not NADP the reaction can be measured by analysing the decrease in fluorescence.
Compounds were added to a black 384 well plate (Matrix) in a volume of 5 μl consisting of 20% DMSO and 80% Tris buffer pH 7.5, at a top concentration of 1 mM. NADPH, 30 μl of 166.6 μM, formulated in assay buffer (0.1M Tris ph7.5, 0.1 mM EDTA, 1 mM glutathione, 0.05% BSA), was then added to all of the wells of the plate. Fatty acid synthase Human or rat enzyme (0.4 μg, produced in house), dissolved in 20 mM Tris/HCl pH 7.5, 5 mM BOG, 1 mM TCEP, 10% glycerol, 1 mM EDTA, 150 mM NaCl, was then added to the plate in a volume of […]. Enzyme was added to all but the last two columns of the plate, to which, 10 μl of assay buffer was added (0.1M Tris ph7.5, 0.1 mM EDTA, 1 mM glutathione, 0.05% BSA) to provide a no enzyme assay control. Following a 15-minute incubation period, at room temperature, the plates were read on an Envision plate reader using 340 nm excitation and 460 nm emission filters. This served as a time zero background read. Substrates (an equal mix of both malonyl and acetyl CoA) were then added to the plates in a total volume of 5 μl. The concentrations of malonyl and acetyl CoA in the mixture were 500 μM and 150 μM respectively. Both were prepared as 10 mM stock solutions in distilled water and were subsequently diluted to working concentrations in assay buffer. Plates were then incubated for a further 60 minutes, at room temperature, before being read again on the Envision reader using the same parameters as previously used. The data was analysed by subtracting the background time zero data from that generated following the final 60 minute incubate and the percent inhibition compared to the maximum and minimum assay controls was determined. Sigmoid curves were fitted using Origin 7.5 Client software and IC50 values were determined.

T1 sequence (P49327 whole entry): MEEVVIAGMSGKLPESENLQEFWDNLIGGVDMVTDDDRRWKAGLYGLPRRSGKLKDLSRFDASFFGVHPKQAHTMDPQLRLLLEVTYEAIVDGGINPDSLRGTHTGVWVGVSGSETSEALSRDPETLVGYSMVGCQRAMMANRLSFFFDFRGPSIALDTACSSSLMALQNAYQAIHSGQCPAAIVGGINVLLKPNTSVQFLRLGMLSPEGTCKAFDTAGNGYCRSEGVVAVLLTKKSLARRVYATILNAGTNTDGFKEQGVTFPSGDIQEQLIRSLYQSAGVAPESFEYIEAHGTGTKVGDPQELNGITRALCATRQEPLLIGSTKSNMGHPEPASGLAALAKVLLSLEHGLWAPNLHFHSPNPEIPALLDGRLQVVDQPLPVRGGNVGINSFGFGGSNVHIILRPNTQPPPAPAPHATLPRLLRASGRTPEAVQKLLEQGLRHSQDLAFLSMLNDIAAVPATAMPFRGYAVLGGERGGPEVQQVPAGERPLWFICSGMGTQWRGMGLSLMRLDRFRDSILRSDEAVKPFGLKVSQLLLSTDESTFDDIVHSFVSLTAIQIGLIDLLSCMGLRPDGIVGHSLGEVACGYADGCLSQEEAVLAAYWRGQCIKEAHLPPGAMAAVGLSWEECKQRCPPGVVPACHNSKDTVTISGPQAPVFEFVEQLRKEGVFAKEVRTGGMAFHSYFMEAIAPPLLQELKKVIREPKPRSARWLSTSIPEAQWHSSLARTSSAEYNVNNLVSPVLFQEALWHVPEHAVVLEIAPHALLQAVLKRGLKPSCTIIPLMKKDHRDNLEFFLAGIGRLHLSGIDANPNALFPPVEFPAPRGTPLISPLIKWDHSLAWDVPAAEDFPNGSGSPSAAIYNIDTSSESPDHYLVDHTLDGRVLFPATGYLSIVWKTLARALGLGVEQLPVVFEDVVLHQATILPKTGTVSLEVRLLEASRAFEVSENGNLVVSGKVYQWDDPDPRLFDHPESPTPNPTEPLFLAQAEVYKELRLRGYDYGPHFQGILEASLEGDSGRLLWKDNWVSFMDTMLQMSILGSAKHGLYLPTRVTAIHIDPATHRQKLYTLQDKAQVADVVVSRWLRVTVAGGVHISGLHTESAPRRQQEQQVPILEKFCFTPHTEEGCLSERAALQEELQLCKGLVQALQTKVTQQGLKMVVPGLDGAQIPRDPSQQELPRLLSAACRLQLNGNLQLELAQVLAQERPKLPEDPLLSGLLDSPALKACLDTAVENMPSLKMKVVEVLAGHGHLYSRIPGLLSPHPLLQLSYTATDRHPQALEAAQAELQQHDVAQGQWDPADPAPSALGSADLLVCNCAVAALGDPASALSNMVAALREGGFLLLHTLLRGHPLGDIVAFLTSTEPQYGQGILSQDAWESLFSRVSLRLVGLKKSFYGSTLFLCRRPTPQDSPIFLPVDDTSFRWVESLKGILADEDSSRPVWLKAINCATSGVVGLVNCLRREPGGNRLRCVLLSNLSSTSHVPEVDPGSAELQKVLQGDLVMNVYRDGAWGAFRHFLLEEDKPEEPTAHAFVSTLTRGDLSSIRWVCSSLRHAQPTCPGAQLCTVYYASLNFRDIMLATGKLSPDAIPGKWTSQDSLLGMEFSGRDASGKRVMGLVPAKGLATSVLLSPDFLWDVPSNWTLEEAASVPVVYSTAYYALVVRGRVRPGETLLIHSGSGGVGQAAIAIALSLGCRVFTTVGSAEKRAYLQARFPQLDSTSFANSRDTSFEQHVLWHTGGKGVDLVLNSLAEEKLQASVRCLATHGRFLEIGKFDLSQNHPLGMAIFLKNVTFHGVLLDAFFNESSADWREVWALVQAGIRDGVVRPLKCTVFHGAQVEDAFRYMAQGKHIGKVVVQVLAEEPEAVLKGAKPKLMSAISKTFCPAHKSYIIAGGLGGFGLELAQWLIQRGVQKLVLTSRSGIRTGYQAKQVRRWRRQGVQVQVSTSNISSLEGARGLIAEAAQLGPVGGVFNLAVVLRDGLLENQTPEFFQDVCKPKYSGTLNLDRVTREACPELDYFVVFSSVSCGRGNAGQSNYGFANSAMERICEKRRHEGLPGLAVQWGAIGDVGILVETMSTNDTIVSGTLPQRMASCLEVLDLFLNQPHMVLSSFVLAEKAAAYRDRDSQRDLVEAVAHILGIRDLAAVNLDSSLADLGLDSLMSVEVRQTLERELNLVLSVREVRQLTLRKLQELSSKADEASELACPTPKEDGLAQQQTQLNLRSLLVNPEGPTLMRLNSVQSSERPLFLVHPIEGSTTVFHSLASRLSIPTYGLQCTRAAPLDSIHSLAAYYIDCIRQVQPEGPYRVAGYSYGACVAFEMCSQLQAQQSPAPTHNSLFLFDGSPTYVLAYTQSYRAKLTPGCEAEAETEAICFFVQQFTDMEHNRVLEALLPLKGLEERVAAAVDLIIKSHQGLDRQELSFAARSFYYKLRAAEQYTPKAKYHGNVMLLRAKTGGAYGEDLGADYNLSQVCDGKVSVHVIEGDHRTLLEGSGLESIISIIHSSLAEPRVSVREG

Structure (SMILES)	inhibition at 100 µM	also measured
Cc1ccc(C(=O)N2CCC(c3ccc(C#N)cc3)CC2)cc1NS(=O)(=O)CCN1C(=O)c2ccccc2C1=O [Example 71, N-[5-[4-(4-cyanophenyl)piperidine-1-carbonyl]-2-methyl-phenyl]-2-(1,3-dioxoisoindol-2-yl)ethanesulfonamide]	100%	
Cc1ccc(C(=O)N2CCC(c3ccc(-c4ncon4)cc3)CC2)cc1NS(C)(=O)=O [Example 171, N-[2-methyl-5-[4-[4-(1,2,4-oxadiazol-3-yl)phenyl]piperidine-1-carbonyl]phenyl]methanesulfonamide]	85%	
COC(=O)c1ccc(C2CCN(C(=O)c3ccc(C)c(NS(C)(=O)=O)c3)CC2)cc1 [Methyl 4-[1-(3-methanesulfonamido-4-methylbenzoyl)piperidin-4-yl]benzoate]		IC50s in the range of about 0.001 μM to about 30 μM: do not have IC50s in the range of about 0.001 μM to about 30 μM
Cc1ccc(C(=O)N2CCC(c3ccc(C#CCCO)cc3)CC2)cc1NS(C)(=O)=O [Example 251, N-[5-[4-[4-(4-hydroxybut-1-ynyl)phenyl]piperidine-1-carbonyl]-2-methylphenyl]methanesulfonamide]		IC50 (unit inferred): 663 nM
Cc1ccc(C(=O)N2CCC(c3ccc(C#N)cc3)CC2)cc1NS(=O)(=O)CCCNS(=O)(=O)C(C)C [Example 131, N-[5-[4-(4-cyanophenyl)piperidine-1-carbonyl]-2-methyl-phenyl]-3-(propan-2-ylsulfonylamino)propane-1-sulfonamide]	91%	
Cc1ccc(C(=O)N2CCC(c3ccc(C#N)cc3)CC2)cc1NS(=O)(=O)c1c(C)noc1C [Example 149, N-[5-[4-(4-cyanophenyl)piperidine-1-carbonyl]-2-methyl-phenyl]-3,5-dimethyl-1,2-oxazole-4-sulfonamide]	85%	
Cc1ccc(NS(=O)(=O)CC2CCCCC2)cc1C(=O)N1CCC(c2ccc(C#N)cc2)CC1 [Example 41, N-[3-[4-(4-cyanophenyl)piperidine-1-carbonyl]-4-methyl-phenyl]-1-cyclohexyl-methanesulfonamide]	96%	
CCCCOc1ccc(S(=O)(=O)Nc2ccc(C)c(C(=O)N3CCC(c4ccc(C#N)cc4)CC3)c2)cc1 [Example 198, 4-butoxy-N-[3-[4-(4-cyanophenyl)piperidine-1-carbonyl]-4-methylphenyl]benzene-sulfonamide]	71%	
Cc1ccc(C(=O)N2CCC(c3ccc(CC(=O)O)cc3)CC2)cc1NS(C)(=O)=O [2-[4-[1-(3-methanesulfonamido-4-methylbenzoyl)piperidin-4-yl]phenyl]acetic acid]		IC50s in the range of about 0.001 μM to about 30 μM: do not have IC50s in the range of about 0.001 μM to about 30 μM
CNC(=O)Cc1ccc(C2CCN(C(=O)c3ccc(C)c(NS(C)(=O)=O)c3)CC2)cc1 [Example 240, 2-[4-[1-(3-methanesulfonamido-4-methylbenzoyl)piperidin-4-yl]phenyl]-N-methylacetamide]	63.9%	
N#Cc1ccc(C2CCN(C(=O)c3ccc(F)c(NS(=O)(=O)Cc4ccccc4)c3)CC2)cc1 [Example 194, N-[5-[4-(4-cyanophenyl)piperidine-1-carbonyl]-2-fluorophenyl]-1-phenylmethane-sulfonamide]	69%	
Cc1ccc(C(=O)N2CCC(c3ccc(NS(C)(=O)=O)cc3)CC2)cc1NS(C)(=O)=O [Example 221, N-[4-[1-(3-methanesulfonamido-4-methylbenzoyl)piperidin-4-yl]phenyl]methane-sulfonamide]	74%	
CCCCS(=O)(=O)Nc1cc(C(=O)N2CCC(c3ccc(C#N)cc3)CC2)ccc1C [Example 12, N-[5-[4-(4-cyanophenyl)piperidine-1-carbonyl]-2-methyl-phenyl]butane-1-sulfonamide]	90%	
CCOC(=O)NCc1ccc(C2CCN(C(=O)c3ccc(C)c(NS(C)(=O)=O)c3)CC2)cc1 [Example 228, Ethyl N-[[4-[1-(3-methanesulfonamido-4-methylbenzoyl)piperidin-4-yl]phenyl]methyl]carbamate]	85.5%	
CCS(=O)(=O)Nc1ccc(C)c(C(=O)N2CCC(c3ccc(C#N)cc3)CC2)c1 [Example 36, N-[3-[4-(4-cyanophenyl)piperidine-1-carbonyl]-4-methyl-phenyl]ethanesulfonamide]	88%	
CNC(=O)NCc1ccc(C2CCN(C(=O)c3ccc(C)c(NS(C)(=O)=O)c3)CC2)cc1 [Example 233, 1-[[4-[1-(3-methanesulfonamido-4-methylbenzoyl)piperidin-4-yl]phenyl]methyl]-3-methylurea]	81.8%	
Cc1ccc(NS(C)(=O)=O)cc1C(=O)N1CCC(c2ccc(C#N)cc2)CC1 [Example 7, N-[3-[4-(4-cyanophenyl)piperidine-1-carbonyl]-4-methyl-phenyl]methanesulfonamide]	78%	
Cc1ccc(NS(=O)(=O)c2ccccc2)cc1C(=O)N1CCC(c2ccc(C#N)cc2)CC1 [Example 35, N-[3-[4-(4-cyanophenyl)piperidine-1-carbonyl]-4-methyl-phenyl]benzenesulfonamide]	89%	
Cc1ccc(C(=O)N2CCC(c3ccc(C#N)cc3)CC2)cc1NS(=O)(=O)c1ccc(N2CCOCC2)nc1 [Example 93, N-[5-[4-(4-cyanophenyl)piperidine-1-carbonyl]-2-methyl-phenyl]-6-morpholin-4-yl-pyridine-3-sulfonamide]	79%	
Cc1ccc(C(=O)N2CCC(c3ccc(C#N)cc3)CC2)cc1NS(=O)(=O)c1ccn(C)n1 [Example 140, N-[5-[4-(4-cyanophenyl)piperidine-1-carbonyl]-2-methyl-phenyl]-1-methyl-pyrazole-3-sulfonamide]	100%	
Cc1ccc(C(=O)N2CCC(c3ccc(C#N)cc3)CC2)cc1NS(=O)(=O)c1ccc(NC(C)C)nc1 [Example 99, N-[5-[4-(4-cyanophenyl)piperidine-1-carbonyl]-2-methyl-phenyl]-6-(propan-2-ylamino)pyridine-3-sulfonamide]	92%	
COC(=O)C(C)S(=O)(=O)Nc1cc(C(=O)N2CCC(c3ccc(C#N)cc3)CC2)ccc1C (stereo not drawn) [Example 137, Methyl 2-[[5-[4-(4-cyanophenyl)piperidine-1-carbonyl]-2-methyl-phenyl]sulfamoyl]propanoate]	97%	
Cc1nc(-c2ccc(C3CCN(C(=O)c4ccc(C)c(NS(C)(=O)=O)c4)CC3)cc2)no1 [Example 167, N-[2-methyl-5-[4-[4-(5-methyl-1,2,4-oxadiazol-3-yl)phenyl]piperidine-1-carbonyl]phenyl]methanesulfonamide]	87%	
Cc1ccc(C(=O)N2CCC(c3ccc(N4CCCC4=O)cc3)CC2)cc1NS(C)(=O)=O [N-[2-methyl-5-[4-[4-(2-oxopyrrolidin-1-yl)phenyl]piperidine-1-carbonyl]phenyl]methanesulfonamide]		IC50s in the range of about 0.001 μM to about 30 μM: do not have IC50s in the range of about 0.001 μM to about 30 μM
Cc1ccc(C(=O)N2CCC(c3ccc(-c4ccccc4)cc3)CC2)cc1NS(C)(=O)=O [Example 175, N-[2-methyl-5-[4-(4-phenylphenyl)piperidine-1-carbonyl]phenyl]methanesulfonamide]	71%	
Cc1ccc(C(=O)N2CCC(c3ccc(C#N)cc3)CC2)cc1NS(=O)(=O)CC(=O)N(C)C [Example 91, 2-[[5-[4-(4-cyanophenyl)piperidine-1-carbonyl]-2-methyl-phenyl]sulfamoyl]-N,N-dimethyl-acetamide]	80%	
Cc1ccc(C(=O)N2CCC(c3ccc(CO)cc3)CC2)cc1NS(C)(=O)=O [Example 165, N-[5-[4-[4-(hydroxymethyl)phenyl]piperidine-1-carbonyl]-2-methylphenyl]methanesulfonamide]	76%	
CCCS(=O)(=O)Nc1cc(C(=O)N2CCC(c3ccc(C#N)cc3)CC2)c(C)cc1C [Example 117, N-[5-[4-(4-cyanophenyl)piperidine-1-carbonyl]-2,4-dimethyl-phenyl]propane-1-sulfonamide]	98%	
Cc1ccc(NS(=O)(=O)c2cccc(C#N)c2)cc1C(=O)N1CCC(c2ccc(C#N)cc2)CC1 [Example 47, 3-cyano-N-[3-[4-(4-cyanophenyl)piperidine-1-carbonyl]-4-methyl-phenyl]benzenesulfonamide]	85%	
Cc1ccc(C(=O)N2CCC(c3ccc(F)cc3)CC2)cc1NS(C)(=O)=O [Example 213, N-[5-[4-(4-fluorophenyl)piperidine-1-carbonyl]-2-methylphenyl]methanesulfonamide]	71%	
